From ChEMBL document CHEMBL1126151, “A study on the contribution of the 1-phenyl substituent to the molecular electrostatic potentials of some benzazepines in relation to selective dopamine D-1 receptor activity” (J Med Chem, 1992)

Molecular target: Adenylate cyclase
Assay: Compound was tested for the adenylate cyclase stimulation
Type: protein assay

| Structure (SMILES) | EC50 [M] |
| --- | --- |
| Oc1cc2c(cc1O)[C@@H](C1CCCCC1)CNCC2 | > 0.00001 |
| Oc1cc2c(cc1O)CCNCC2 | 5.2e-06 |
